{"source": "patent US11090304B2", "about": "(Amgen Inc., priority 2018, dated 2021)", "target": "GDP-bound KRAS protein (aa 1-169), containing both G12C and C118A amino acid substitutions (Homo sapiens, UniProt P01116, C118A/G12C)", "sequence (P01116 1-169 isoform P01116-2 G12C/C118A)": "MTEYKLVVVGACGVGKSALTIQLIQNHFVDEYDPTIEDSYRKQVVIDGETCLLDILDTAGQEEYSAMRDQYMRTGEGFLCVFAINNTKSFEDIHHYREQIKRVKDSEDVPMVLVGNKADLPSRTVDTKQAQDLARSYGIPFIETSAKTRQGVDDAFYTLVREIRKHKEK", "assay": "Coupled nucleotide exchange assay (SOS-mediated, AlphaScreen)", "assay_type": "biochemical", "conditions": "5 min compound pre-incubation"}
{"compound": "C=CC(=O)N1CCN(c2nc(=O)n(-c3nccc4c3CCCC4)c3nc(-c4c(O)cccc4F)c(Cl)cc23)[C@@H](C)C1", "note": "[Example 55-25, 6-chloro-7-(2-fluoro-6-hydroxyphenyl)-4-((2S)-2-methyl-4-(2-propenoyl)-1-piperazinyl)-1-(5,6,7,8-tetrahydro-1-isoquinolinyl)pyrido[2,3-d]pyrimidin-2(1H)-one]", "values": [{"measurement": "Coupled exchange IC50 (5 min)", "value": "2.29 | nda μM"}]}
{"compound": "C=CC(=O)N1CCN(c2nc(=O)n(-c3c(CC)cccc3CC)c3nc(-c4cccnc4)c(Cl)cc23)[C@@H](C)C1", "note": "[Example 55-28, 6-chloro-1-(2,6-diethylphenyl)-4-((2S)-2-methyl-4-(2-propenoyl)-1-piperazinyl)-7-(3-pyridinyl)pyrido[2,3-d]pyrimidin-2(1H)-one]", "values": [{"measurement": "Coupled exchange IC50 (5 min)", "value": "12.9 | nda μM"}]}
{"compound": "C=CC(=O)N1CCN(c2nc(=O)n(-c3c(CC)cccc3CC)c3nc(-c4cccnc4C)c(Cl)cc23)[C@@H](C)C1", "note": "[Example 55-29, 6-chloro-1-(2,6-diethylphenyl)-4-((2S)-2-methyl-4-(2-propenoyl)-1-piperazinyl)-7-(2-methyl-3-pyridinyl)pyrido[2,3-d]pyrimidin-2(1H)-one]", "values": [{"measurement": "Coupled exchange IC50 (5 min)", "value": "7.19 | nda μM"}]}
{"compound": "C=CC(=O)N1CCN(c2nc(=O)n(Cc3ccc(OC)cc3)c3nc(-c4c(O)cccc4F)c(Cl)cc23)[C@@H](C)C1", "note": "[Example 55-32, 6-chloro-7-(2-fluoro-6-hydroxyphenyl)-1-(4-methoxybenzyl)-4-((2S)-2-methyl-4-(2-propenoyl)-1-piperazinyl)pyrido[2,3-d]pyrimidin-2(1H)-one]", "values": [{"measurement": "Coupled exchange IC50 (5 min)", "value": "3.07 | nda μM"}]}
{"compound": "C=CC(=O)N1CCN(c2nc(=O)n(C)c3nc(-c4ccccc4F)c(Cl)cc23)[C@@H](C)C1", "note": "[Example 55-33, 6-chloro-7-(2-fluorophenyl)-1-methyl-4-((2S)-2-methyl-4-(2-propenoyl)-1-piperazinyl)pyrido[2,3-d]pyrimidin-2(1H)-one]", "values": [{"measurement": "Coupled exchange IC50 (5 min)", "value": "45.8 | nda μM"}]}
{"compound": "C=CC(=O)N1CCN(c2nc(=O)n(C)c3nc(-c4c(O)cccc4F)c(Cl)cc23)[C@@H](C)C1", "note": "[Example 55-34, 6-chloro-7-(2-fluoro-6-hydroxyphenyl)-1-methyl-4-((2S)-2-methyl-4-(2-propenoyl)-1-piperazinyl)pyrido[2,3-d]pyrimidin-2(1H)-one]", "values": [{"measurement": "Coupled exchange IC50 (5 min)", "value": "20.8 | nda μM"}]}
{"compound": "C=CC(=O)N1CCN(c2nc(=O)n(C)c3nc(-c4c(C)ccc5[nH]ncc45)c(Cl)cc23)[C@@H](C)C1", "note": "[Example 55-36, 6-chloro-1-methyl-7-(5-methyl-1H-indazol-4-yl)-4-((2S)-2-methyl-4-(2-propenoyl)-1-piperazinyl)pyrido[2,3-d]pyrimidin-2(1H)-one]", "values": [{"measurement": "Coupled exchange IC50 (5 min)", "value": "38.6 | nda μM"}]}
{"compound": "C=CC(=O)N1CCN(c2nc(=O)n(-c3c(C)cnn3C(C)(C)C)c3nc(-c4ccccc4F)c(Cl)cc23)[C@@H](C)C1", "note": "[Example 55-38, 6-chloro-7-(2-fluorophenyl)-1-(4-methyl-1-(2-methyl-2-propanyl)-1H-pyrazol-5-yl)-4-((2S)-2-methyl-4-(2-propenoyl)-1-piperazinyl)pyrido[2.3-d]pyrimidin-2(1H)-one]", "values": [{"measurement": "Coupled exchange IC50 (5 min)", "value": "0.377 | nda μM"}]}
{"compound": "C=CC(=O)N1CCN(c2nc(=O)n(-c3cn[nH]c3C(C)C)c3nc(-c4ccccc4F)c(Cl)cc23)[C@@H](C)C1", "note": "[Example 55-42, 6-chloro-7-(2-fluorophenyl)-4-((2S)-2-methyl-4-(2-propenoyl)-1-piperazinyl)-1-(5-(2-propanyl)-1H-pyrazol-4-yl)pyrido[2,3-d]pyrimidin-2(1H)-one]", "values": [{"measurement": "Coupled exchange IC50 (5 min)", "value": "0.351 | nda μM"}]}
{"compound": "C=CC(=O)N1CCN(c2nc(=O)n(-c3scnc3C3CC3)c3nc(-c4c(O)cccc4F)c(Cl)cc23)[C@@H](C)C1", "note": "[Example 56-3, 6-chloro-1-(4-cyclopropyl-1,3-thiazol-5-yl)-7-(2-fluoro-6-hydroxyphenyl)-4-((2S)-2-methyl-4-(2-propenoyl)-1-piperazinyl)pyrido[2,3-d]pyrimidin-2(1H)-one]", "values": [{"measurement": "Coupled exchange IC50 (5 min)", "value": "3.85 | nda μM"}]}
{"compound": "C=CC(=O)N1CCN(c2nc(=O)n(-c3scnc3C3CC3)c3nc(-c4ccccc4F)c(Cl)cc23)[C@@H](C)C1", "note": "[Example 56-4, 6-chloro-1-(4-cyclopropyl-1,3-thiazol-5-yl)-7-(2-fluorophenyl)-4-((2S)-2-methyl-4-(2-propenoyl)-1-piperazinyl)pyrido[2,3-d]pyrimidin-2(1H)-one]", "values": [{"measurement": "Coupled exchange IC50 (5 min)", "value": "5.32 | nda μM"}]}
{"compound": "C=CC(=O)N1CCN(c2nc(=O)n(-c3ccccc3C(C)C)c3nc(-c4cccc(OC(F)F)c4)c(Cl)cc23)[C@@H](C)C1", "note": "[Example 56-8, 6-chloro-7-(3-(difIuoromethoxy)phenyl)-4-((2S)-2-methyl-4-(2-propenoyl)-1-piperazinyl)-1-(2-(2-propanyl)phenyl)pyrido[2,3-d]pyrimidin-2(1H)-one]", "values": [{"measurement": "Coupled exchange IC50 (5 min)", "value": "1.56 | nda μM"}]}
{"compound": "C=CC(=O)N1CCN(c2nc(=O)n(-c3ccccc3C(C)C)c3nc(-c4c(O)cccc4F)c(F)cc23)[C@@H](C)C1", "note": "[Example 57-6, 6-fluoro-7-(2-fluoro-6-hydroxyphenyl)-4-((2S)-2-methyl-4-(2-propenoyl)-1-piperazinyl)-1-(2-(2-propanyl)phenyl)pyrido[2,3-d]pyrimidin-2(1H)-one]", "values": [{"measurement": "Coupled exchange IC50 (5 min)", "value": "1.67 | nda μM"}]}
{"compound": "C=CC(=O)N1CCN(c2nc(=O)n(-c3c(C)ccnc3CC)c3nc(-c4ccccc4F)c(F)cc23)[C@@H](C)C1", "note": "[Example 57-16, 1-(2-ethyl-4-methyl-3-pyridinyl)-6-fluoro-7-(2-fluorophenyl)-4-((2S)-2-methyl-4-(2-propenoyl)-1-piperazinyl)pyrido[2,3-d]pyrimidin-2(1H)-one]", "values": [{"measurement": "Coupled exchange IC50 (5 min)", "value": "3.79 | nda μM"}]}
{"compound": "C=CC(=O)N1CCN(c2nc(=O)n(-c3c(C)ccnc3C3CC3)c3nc(-c4ccccc4F)c(F)cc23)[C@@H](C)C1", "note": "[Example 57-18, 1-(2-cyclopropyl-4-methyl-3-pyridinyl)-6-fluoro-7-(2-fluorophenyl)-4-((2S)-2-methyl-4-(2-propenoyl)-1-piperazinyl)pyrido[2,3-d]pyrimidin-2(1H)-one]", "values": [{"measurement": "Coupled exchange IC50 (5 min)", "value": "1.73 | nda μM"}]}
{"compound": "C=CC(=O)N1CCN(c2nc(=O)n(-c3c(C)cccc3C3CC3)c3nc(-c4ccccc4F)c(F)cc23)[C@@H](C)C1", "note": "[Example 58-14, 1-(2-cyclopropyl-6-methylphenyl)-6-fluoro-7-(2-fluorophenyl)-4-((2S)-2-methyl-4-(2-propenoyl)-1-piperazinyl)pyrido[2,3-d]pyrimidin-2(1H)-one]", "values": [{"measurement": "Coupled exchange IC50 (5 min)", "value": "2.45 | nda μM"}]}
{"compound": "C=CC(=O)N1CCN(c2nc(=O)n(-c3ccccc3C(C)(C)C)c3nc(-c4ccccc4F)c(F)cc23)[C@@H](C)C1", "note": "[Example 58-17, 6-fluoro-7-(2-fluorophenyl)-1-(2-(2-methyl-2-propanyl)phenyl)-4-((2S)-2-methyl-4-(2-propenoyl)-1-piperazinyl)pyrido[2,3-d]pyrimidin-2(1H)-one]", "values": [{"measurement": "Coupled exchange IC50 (5 min)", "value": "1.68 | nda μM"}]}
{"compound": "C=CC(=O)N1CCN(c2nc(=O)n(-c3c(C4CC4)ccnc3C)c3nc(-c4ccccc4F)c(F)cc23)[C@@H](C)C1", "note": "[Example 58-20, 1-(4-cyclopropyl-2-methyl-3-pyridinyl)-6-fluoro-7-(2-fluorophenyl)-4-((2S)-2-methyl-4-(2-propenoyl)-1-piperazinyl)pyrido[2,3-d]pyrimidin-2(1H)-one]", "values": [{"measurement": "Coupled exchange IC50 (5 min)", "value": "1.96 | nda μM"}]}
